In US9493466B2, “Treatment of cancer with TOR kinase inhibitors” (Signal Pharmaceuticals, LLC, priority 2011, dated 2016):

Tests used:
NSCLC = test: Phase 1/2 study Part B: tumor response, NSCLC; format: in vivo, human; conditions: 17 evaluable patients
Description: (§1) In Part B, subjects may start Compound 1 at the MTD and/or a lower dose level based on safety, PK and PD data from Part A. Approximately 150 subjects will be treated and evaluated for safety and preliminary antitumor activity after every two cycles of therapy. Tumor types include non-small cell lung cancer (NSCLC), glioblastoma multiforme (GBM), hepatocellular carcinoma (HCC), gastrointestinal neuroendocrine tumor of non-pancreatic origin (NET), diffuse large B-cell lymphoma (DLBCL), multiple myeloma (MM), and hormone receptor positive breast cancer (HRPBC). Up to 20 subjects will be enrolled in each tumor type.
Subjects will be evaluated for efficacy every 2 cycles through cycle 6 and every 3 cycles thereafter. The primary efficacy variable is response. Tumor assessments, including imaging (CT, MRI and/or PET) of the chest and abdomen and other sites as appropriate, will be performed during Screening. Subjects with brain lesions will also have brain scans at Screening and during follow-up tumor assessments. After Screening, tumor assessments (for all tumors except multiple myeloma) will be performed on completion of Cycles 2, 4 and 6 (i.e., on Cycles 3, 5 and 7/Day 1±7 days) and then every 3 months thereafter (e.g., Cycle 10 and 13/Day 1±7 days). Tumor assessment (for multiple myeloma and only NHL/DLBCL with known or suspected marrow involvement) (bone marrow aspiration and biopsy, with PD biomarker analysis, cytogenetic analysis if abnormally present at Screening) will be performed on completion of Cycles 4, 8, 12 and 16 only (i.e., on Cycles 5, 9, 13 and 17/Day 1±7 days). Cytogenetics need not be repeated if normal at Screening. […] Subjects will be evaluated for tumor response on completion of Cycle 2, 4, 6, and so on. […]
(§2) For Part B, efficacy variables to be analyzed include tumor response at the end of treatment, the proportion of subject alive and progression-free, and duration of response. […]

MM = test: Phase 1/2 study Part B: tumor response, MM; format: in vivo, human; conditions: 11 evaluable patients, up to 9 cycles
Description: as §1
Subjects will be evaluated for efficacy every 2 cycles through cycle 6 and every 3 cycles thereafter. The primary efficacy variable is response. Tumor assessments, including imaging (CT, MRI and/or PET) of the chest and abdomen and other sites as appropriate, will be performed during Screening. Subjects with brain lesions will also have brain scans at Screening and during follow-up tumor assessments. […] Subjects will be evaluated for tumor response on completion of Cycle 2, 4, 6, and so on. […]
as §2

[1] = Phase 1/2 study Part A: safety and tolerability
Description: The study is designed as a Phase 1/2 trial consisting of two parts: dose escalation (Part A) and dose expansion (Part B).
Subsequently, a standard escalation dosing schedule with approximately 50% dose increments and 6 subjects per cohort will be initiated in order to establish the non-tolerated dose (NTD) and MTD. Smaller increments and additional subjects within a dose cohort may also be evaluated.
A dose will be considered to be non-tolerated if 2 evaluable subjects in a dose cohort experience dose-limiting toxicity (DLT). When a NTD is defined, dose escalation will be stopped. The MTD will be defined as the last dose tested below the NTD with 0 or 1 out of 6 evaluable subjects experiencing DLT during Cycle 1. An intermediate dose (i.e., one between the NTD and the last dose level before the NTD) or additional subjects within any dose cohort may be required to determine the MTD more precisely.
The safety variables for this study are adverse events, clinical laboratory variables, 12-lead ECGs (centrally reviewed), LVEF assessments, physical examinations and vital signs. In Part A, the decision to either evaluate a higher dose level or declare a MTD will be determined by the Safety Review Committee (SRC) each time all clinical and laboratory safety data for a given cohort is available for review. The SRC will also determine the dose, doses, or schedule appropriate for Part B. During Part B, the SRC will continue to review safety data regularly and make recommendations about the study continuation, as appropriate.
Part A: Accelerated Dose Escalation Results.

[2] = test system: TORC1 (pS6, p4EBP1) and TORC2 (pAkt) pathways; test: TOR pathway biomarker measurements in whole blood; format: in vivo, human
Description: Parameters to be explored include mTOR biomarker inhibition in blood and tumor, histopathologic response, correlations with pharmacogenomic findings and percentage of inhibition of pAKT (Ser473), phospho-S6RP (Ser235/236 and/or Ser240/244), phospho-4EB-P1 (Thr37/46), and/or other relevant biomarkers in peripheral blood samples and tumor, adverse events and clinical outcome. The pharmacodynamic (PD) measurements are incorporated in this study to evaluate target inhibition of mTORC1 and mTORC2 pathways, the consequences of such inhibition, and PK/PD relationships. In Parts A and B, biomarker analysis will involve measuring pAKT (mTORC2) in protein lysates derived from isolated platelets. Levels of p4EB-P1 and pS6RP (mTORC1), and pAKT (mTORC2), will be measured by flow cytometry using whole blood samples. Likewise, in Parts A and B, pAKT, p4EB-P1, p56, Ki67 and/or other relevant markers to assess Compound 1 activity will be measured in serial tumor biopsies from subjects with accessible disease when possible. The changes of each biomarker will be determined by comparing the levels of biomarkers in pre- and post-treatment samples and, where possible, correlate these with drug exposure in blood, and tissue if available, and tumor response over time. Full details of all statistical analyses and modeling for these outcomes will be described in the statistical analysis plan and final study report.
TOR Pathway Biomarker Measurements in Whole Blood. Blood samples received from clinical sites were aliquoted into a 96-deepwell plate and rested for 1 hour at 37° C. The samples were stimulated with anti-IgD and LPS for 15 minutes at 37° C. The red blood cells were lysed and the white blood cells were fixed with BD Lyse/Fix Buffer at a ratio of 15:1 buffer to blood for 10 minutes at 37° C. The plates were centrifuged, aspirated, and 1 mL of ice-cold methanol was added to the wells containing fixed white blood cells to permeabilize the cells for intracellular staining. The plates were stored overnight at −80° C. The plates were thawed, centrifuged, aspirated and washed twice with PBS+0.5% BSA. The cells were stained with antibodies specific for the surface markers CD3, CD14, and CD19, and for mTOR pathway markers, including pS6 (S235/236), p4EBP1 (T37/46), and pAKT (S473). The cells were washed twice with PBS and fixed with 1.6% PFA.
Sample analysis: The samples were analyzed on an 8 color cytometer. Control wells of 8-peak rainbow beads (Spherotech Libertyville, Ill.) were acquired at multiple points during sample acquisition. The median fluorescence intensity (MFI) was computed for each marker from the fluorescence intensity levels in T cells, B cells, and monocytes. The MFI were normalized using the 8-peak rainbow beads and presented as ERF (Equivalent number of Reference Fluorophores). ERFs were calculated from the MFIs using a linear regression transformation carried out on a log-log scale using the rainbow calibration particles with 8 intensities on 8 colors. The percent change from baseline for pS6, p4EBP1, and pAKT in stimulated and non-stimulated T cells, B cells, and monocytes was determined for each patient. The baseline value was an average of two visits (screening and cycle 1/day −1 at 0 hr pre-dose) when available.

## CO[C@H]1CC[C@H](N2C(=O)CNc3ncc(-c4ccc(C(C)(C)O)nc4)nc32)CC1 [Compound 1, 7-(6-(2-hydroxypropan-2-yl)pyridin-3-yl)-1-((1r,4r)-4-methoxycyclohexyl)-3,4-dihydropyrazino-[2,3-b]pyrazin-2(1H)-one]
NSCLC
  patients meeting Partial Response (RECIST 1.1): 1 patient
  patients meeting at least Stable Disease (RECIST 1.1): 11 patients
NSCLC; 45 mg QD start
  best target lesions responses (reduction): up to 35%
MM
  tumor responses (IURCMM criteria): No tumor responses
[1]; 30 mg
  DLT: Grade 3 hyperglycemia
[1]; 45 mg
  DLT: grade 3 rash
[1]; 60 mg
  DLT: Fatigue and mucositis
[1]; 3rd dose level
  dose level of the first grade 2 related toxicity: 30 mg
[1]; N=28, 7.5 to 60 mg
  most frequent related events: Fatigue, GI toxicity (including mucositis/stomatitis), hyperglycemia, rash and arthralgia
[1]; once daily, oral
  MTD: 45 mg
  NTD: 60 mg
[1]; onset often during cycle 1, dose related
  Hyperglycemia: reported frequently
[1]; responded to steroid treatment
  interstitial pneumonitis: One case of grade 3 interstitial pneumonitis requiring hospitalization
[1]; toxicities comparable to other drugs targeting this pathway
  tolerability: well tolerated
[2]; Part A, doses of 30 mg and higher, up to 5 hours post first dose, stimulated blood
  inhibition of TORC1 and TORC2 biomarkers: Consistent inhibition
[2]; Part B, DLBCL patients
  TORC1 and TORC2 inhibition: observed in the first patient analyzed
[2]; Part B, GBM patients
  TORC1 and TORC2 inhibition: observed in majority of patients
[2]; Part B, HCC patients
  TORC1 and TORC2 inhibition: observed in majority of patients
[2]; Part B, MM patients
  TORC1 and TORC2 inhibition: observed in 2 patients
[2]; Part B, NSCLC patients
  TORC1 and TORC2 inhibition: observed in majority of patients
[2]; Part B, all cohorts, blood, 1.5 h after dosing, Cycle 1 Day 1 and Day 15, P <0.001
  TORC1 and TORC2 inhibition (pAkt, p4EPB1): inhibition was observed
